Experimental data reported in patent US10441662B2, “Polymer, method for producing polymer, and drug conjugate” (Kawasaki Institute of Industrial Promotion, priority 2016, dated 2019).
Counter-ions that a name gives are not always drawn. Like-named read-outs stand apart in the source and are kept apart here.

Tests used:
[1] = test system: PC14 strain; test: Cytotoxicity test against lung cancer cells, PC14
Description: (§1) The cytotoxicity test was performed on the K252a-H bonded aromatic polymer micelle and the K252a-H bonded aliphatic polymer micelle using the lung cancer cell strains listed in Table 4.
(§2) 2000 cells/50 μL of a cell solution was adjusted to have an appropriate amount, and 50 μL of the solution was each seeded to the […] of a 96-well plate. Only a culture medium (DMEM culture medium containing 10% FBS) was added to the raw 1. After the seeding, the 96-well plate was incubated for 24 hours.
(§3) 300 μL of a culture medium was added to each of 10 wells of the 24-well plate. 100 μL of the micelle solution was added to the well 1A of the 24-well plate and stirred by pipetting (approximately 10 times), and 100 μL of the micelle solution was transferred to the well 2B and stirred in the same manner as described above. The same operation was repeated 10 times, and micelle solutions having ten different concentrations were prepared.
(§4) 50 μL of each micelle solution adjusted in the above-described manner was added to the row 3 to the row 12 of a 96-well plate seeded with cancer cells in descending order of micelle concentrations of the solutions. Only 50 μL of a culture medium was added to the rows 1 and 2. Thereafter, the 96-well plate was incubated. After the incubation, the cells remained, the solutions in the wells were removed, and the cells in each well were washed with 200 μL of the culture medium. Finally, 100 μL of the culture medium was added to each well and the 96-well plate was incubated for 48 hours.
(§5) After 48 hours, 10 μL of a cell counting kit-8 solution (DOJINDO) was added to each well. The 96-well plate was incubated again, and the absorbance at a wavelength of 450 nm was measured after 30 minutes, 1 hour, and 2 hours.
The PC14.PE6 strain is a cancer cell strain (Yano et al., Oncology Research 9:573 to 579 (1997)) obtained by performing an operation of administering the PC14 strain to the tail vein of a mouse and establishing the cancer cells metastasized to the thoracic cavity six times. […]

[2] = test system: PC14.PE6 strain; test: Cytotoxicity test against lung cancer cells, PC14.PE6
Description: as §1, §2, §3, §4, §5
The PC14.PE6 strain is a cancer cell strain (Yano et al., Oncology Research 9:573 to 579 (1997)) obtained by performing an operation of administering the PC14 strain to the tail vein of a mouse and establishing the cancer cells metastasized to the thoracic cavity six times. Therefore, the PC14.PE6 strain is a cancer cell strain which is extremely metastatic and malignant.

[3] = Evaluation of maximum tolerated dose (MTD) of DAVBNH; format: in vivo, mouse
Description: DAVBNH was administered to mice (BALB/c Nude, female, 6 weeks old) four times (0 day, 3rd day, 6th day, 9th day) […], and the maximum tolerated dose (MTD) was evaluated. The administration groups were prepared as follows, and the number of mice in each group was set to 3.
Administration group 1: 3 mg/kg of DAVBNH
Administration group 2: 4 mg/kg of DAVBNH
Administration group 3: 6 mg/kg of DAVBNH

[4] = Evaluation of maximum tolerated dose (MTD) of drug conjugate; format: in vivo, mouse
Description: The drug was administered to mice (BALB/c Nude, female, 6 weeks old) four times (0 day, 3rd day, 6th day, 9th day) […], and the maximum tolerated dose (MTD) was evaluated. The administration groups were prepared as follows, and the number of mice in each group was set to 5.
Administration group 1: PBS (control)
Administration group 2: 2 mg/kg of DAVBNH (VinHyd)
Administration group 3: 2 mg/kg of DAVBNH bonded polymer micelle (Example 1)
Administration group 4: 4 mg/kg of DAVBNH bonded polymer micelle (Example 1)
Administration group 5: 16 mg/kg of DAVBNH bonded polymer micelle (Example 1)

[5] = test system: pancreatic cancer cell strains; test: Cytotoxicity test against pancreatic cancer cells; format: cell-based; conditions: FIG. 31
Description: The cytotoxicity test was performed on the K252a-H bonded aromatic polymer micelle and the K252a-H bonded aliphatic polymer micelle using various pancreatic cancer cell strains in the same manner as described above. The BXPC3-F3 strain is a metastatic strain which became malignant by performing an operation of establishing a cancer cell strain metastasized to the liver after orthotopic transplant into a mouse, three times. Further, KP-3L is a metastatic strain (available from the cell bank of National Institutes of Biomedical Innovation, Health and Nutrition JCRB) obtained by establishing a cancer cell strain metastasized to the liver after human liver metastatic pancreatic cancer was transplanted to the spleen of a nude mouse.

[6] = target: mutant kinases (list of FIG. 42); test: Hot spot kinase profiling, Monthly 202 mutant kinase panel; format: biochemical; conditions: 100 nM, ATP 10 μM, mutant kinases listed in FIG. 42
Description: (§6) The kinase profiling of K252a-H was performed using Monthly 202 mutant kinase panel by entrustment with Reaction Biology Corporation. The conditions for the kinase assay are as follows. KK252a was dissolved in DMSO and the assay was performed at 100 nM.
(§7) Buffer condition: 20 mM HEPES, pH of 7.5, 10 mM MgCl2, 1 mM EGTA, (in a case of being applicable, 2 mM MnCl2)

[7] = test system: RET; test: Hot spot kinase profiling; format: biochemical; conditions: 100 nM, ATP 10 μM
Description: as §6, §7

[8] = test system: c-kit; test: Hot spot kinase profiling; format: biochemical; conditions: 100 nM, ATP 10 μM
Description: as §6, §7

[9] = test system: Flt3; test: Hot spot kinase profiling; format: biochemical; conditions: 100 nM, ATP 10 μM
Description: as §6, §7

[10] = target: T1, EGFR d746-750/T790M/C797S (Homo sapiens, UniProt P00533, C797S/DEL746-750/T790M); test: Hot spot kinase profiling, EGFR mutation; format: biochemical; conditions: 100 nM, ATP 10 μM, FIG. 40
T1 construct: purchased Reaction Biology Corporation
Description: as §6, §7

[11] = target: T2, EGFR T790M (Homo sapiens, UniProt P00533, T790M); test: Hot spot kinase profiling, EGFR mutation; format: biochemical; conditions: 100 nM, ATP 10 μM, FIG. 40
T2 construct: purchased Reaction Biology Corporation
Description: as §6, §7

[12] = target: T3, EGFR L858R (Homo sapiens, UniProt P00533, L858R); test: Hot spot kinase profiling, EGFR mutation; format: biochemical; conditions: 100 nM, ATP 10 μM, FIG. 40
T3 construct: purchased Reaction Biology Corporation
Description: as §6, §7

[13] = target: T4, EGFR d746-750/T790M (Homo sapiens, UniProt P00533, DEL746-750/T790M); test: Hot spot kinase profiling, EGFR mutation; format: biochemical; conditions: 100 nM, ATP 10 μM, FIG. 40
T4 construct: purchased Reaction Biology Corporation
Description: as §6, §7

[14] = test system: head and neck cancer cell strains; test: Cytotoxicity test against head and neck cancer cells; format: cell-based; conditions: all head and neck cancer cell strains, FIG. 32
Description: The cytotoxicity test was performed on the K252a-H bonded aromatic polymer micelle and the K252a-H bonded aliphatic polymer micelle using various head and neck cancer cell strains in the same manner as described above. Further, CDDP indicates Cisplatin serving as a target treatment drug for head and neck cancer.

[15] = test system: mesothelioma cell strain MSTO-211H; test: Cytotoxicity test against mesothelioma cells; format: cell-based; conditions: FIG. 33
Description: Further, CDDP indicates Cisplatin serving as a target treatment drug for mesothelioma. Pemetrexed is also a target treatment drug for mesothelioma.

[16] = Solubilization test in water; format: physicochemical; conditions: distilled water, UV absorption spectrum of filtrate
Description: K252a-H powder was dissolved in distilled water or methanol at a ratio of 1 mg/mL and the solution was sufficiently mixed. Thereafter, the solution was filtered using a filter having a pore diameter of […]. The ultraviolet absorption spectrum of the filtrate prepared as described above was measured using a spectrophotometer (Jasco V670). Based on the results of FIG. 27, it was confirmed that K252a-H was only dissolved in water at a ratio of 1 μg/mL or less.
Meanwhile, the K252a-H bonded aromatic polymer micelle and the K252a-H bonded aliphatic polymer micelle were dissolved in water, and the concentration of K252a-H was measured using HPLC.

[17] = test system: lung cancer cell strains listed in Table 4; test: Cytotoxicity test against lung cancer cells; format: cell-based; conditions: FIG. 29
Description: Further, in the following example, the used cell strains were purchased from the cell bank of American Type Culture. Collection, ATCC or National Institutes of Biomedical Innovation, Health and Nutrition (JCRB). PC14 PE6 was distributed from Profession Hosho (Tottori University). As the culture medium, DMEM, RPMI, or E-MEM was used unless otherwise specified. Gefitinib, Afatinib, Erlotinib, Cisplatin, Pemetrexed, and Gemicitabine were purchased from Funakoshi Co., Ltd. Osimertinib was purchased from Sellek Chemicals LLC.
Thereafter, the 96-well plate was incubated.

[18] = test system: U87MG serving as a glioma cell strain; test: Cytotoxicity test against brain tumor cells (cell-counting kit-8); format: cell-based; conditions: Homo sapiens, U-87 MG
Description: The in vitro cytotoxicity of the vinblastine sulfate and the drug conjugate (DAVBNH bonded polymer micelle of Example 1) was evaluated using cell-counting kit-8 with respect to U87MG serving as a glioma cell strain. The U87MG cells (3000 cells/well) were cultured in a DMEM medium containing 10% FBS using a 96-well plate. Thereafter, the U87MG cells were exposed to the vinblastine sulfate or the drug conjugate whose dose was different from that of the vinblastine sulfate. The cell survival rates after 48 hours and 72 hours from the exposure were acquired by measuring the formazan absorbance […] 450 nm.

[19] = mouse; cited from earlier work
[20] = malignant metastatic strain, compared with PC14

For CN(C)C/C=C/C(=O)Nc1cc2c(Nc3ccc(F)c(Cl)c3)ncnc2cc1O[C@H]1CCOC1 [Afatinib], the “cytotoxic activity against the PC14 strain” value ([1]; FIGS. 29 and 30) was “excellent cytotoxic activity” and the “cytotoxic activity against the PC14.PE6 strain” value [2, 20] was “significantly decreased”.

For CC[C@]1(O)C[C@@H]2CN(CCc3c([nH]c4ccccc34)[C@@](C(=O)OC)(c3cc4c(cc3OC)N(C)[C@H]3[C@@](O)(C(=O)NN)[C@H](O)[C@]5(CC)C=CCN6CC[C@]43[C@@H]65)C2)C1 [DAVBNH, desacetyl vinblastine hydrazide], the weight loss ([3]; dose of 3 mg/kg, after only 25% of the treatment schedule) was “significant weight loss was observed”, the lethal dose ([3]; mice, four administrations) was 6 mg/kg and the weight loss ([4]; dose 2 mg/kg) was “a weight loss occurs”. It also gave an MTD ([4]; female, BALB/c Nude, mouse, in vivo, 2 mg/kg, mice, as used in Example 8) of 2 mg/kg.

For C#Cc1cccc(Nc2ncnc3cc(OCCOC)c(OCCOC)cc23)c1 [Erlotinib], the “effect on K-ras mutant strains and malignant metastatic strains” value (“effect” for short) [5] was “not largely affected”.

In the case of CC12OC(CC1(O)C(=O)NN)n1c3ccccc3c3c4c(c5c6ccccc6n2c5c31)CNC4=O (centres unmarked) [Example K252a-H, K252a hydrazide], the “kinase activity suppressed to” value [6] is reported as at most 30%, the “inhibition of oncogene RET” value [7] is reported as “strong inhibitor” and the “inhibition of oncogene c-kit” value [8] is reported as “strong inhibitor”. For the same molecule, the “inhibition of oncogene Flt3” value [9] was “strong inhibitor”, the “activity against EGFR gatekeeper mutation d746-750/T790M/C797S” value [10] was “specifically high activity” and the “activity against EGFR gatekeeper mutation T790M” value [11] was “specifically high activity”. For the same molecule, the “activity against EGFR gatekeeper mutation L858R” value [12] was “specifically high activity”, the “activity against EGFR gatekeeper mutation d746-750/T790M” value [13] was “specifically high activity” and the “cytotoxic activity compared with Cisplatin” value [14] was “higher cytotoxic activity against all head and neck cancer cell strains than that of Cisplatin”. For the same molecule, the “cytotoxic activity compared with Cisplatin and Pemetrexed” value [15] was “higher cytotoxic activity than that of Cisplatin and Pemetrexed”, the “cytotoxic activity against the PC14.PE6 strain” value [2, 20] was “increased” and the dissolved in water [16] was at most 1 µg/mL. For the same molecule, the “cytotoxic activity against lung cancer having resistance to lung cancer treatment drugs of the related art” value [17] was “excellent cytotoxic activity” and the “effect” value [5] was “effective for K-ras mutant strains and malignant metastatic strains”.

For COc1cc2ncnc(Nc3ccc(F)c(Cl)c3)c2cc1OCCCN1CCOCC1 [Gefitinib], the “cytotoxic activity against the PC14 strain” value [1] was “excellent cytotoxic activity” and the “cytotoxic activity against the PC14.PE6 strain” value [2] was “significantly decreased”.

With Nc1ccn([C@@H]2O[C@H](CO)[C@@H](O)C2(F)F)c(=O)n1 [Gemcitabine] the “effect” value [5] was “not largely affected”.

In the case of C=CC(=O)Nc1cc(Nc2nccc(-c3cn(C)c4ccccc34)n2)c(OC)cc1N(C)CCN(C)C [Osimertinib], the “cytotoxic activity against the PC14 strain” value [1] is reported as “excellent cytotoxic activity” and the “cytotoxic activity against the PC14.PE6 strain” value [2] is reported as “significantly decreased”.

Work on CC[C@]1(O)C[C@@H]2CN(CCc3c([nH]c4ccccc34)[C@@](C(=O)OC)(c3cc4c(cc3OC)N(C)[C@H]3[C@@](O)(C(=O)OC)[C@H](OC(C)=O)[C@]5(CC)C=CCN6CC[C@]43[C@@H]65)C2)C1 [Vinblastine sulfate, vinblastine sulfate] yielded an IC50 ([18]; 48 hours from the exposure, read-out: IC50 48 hours) of 1.4 nM and an IC50 ([18]; 72 hours from the exposure, read-out: IC50 72 hours) of 1.7 nM.

For CC[C@]1(O)C[C@@H]2CN(CCc3c([nH]c4ccccc34)[C@@](C(=O)OC)(c3cc4c(cc3OC)N(C)[C@H]3[C@@](O)(C(=O)OC)[C@H](OC(C)=O)[C@]5(CC)C=CCN6CC[C@]43[C@@H]65)C2)C1 [Vinblastine, vinblastine], the maximum tolerated dose [19] is given as 2 mg/kg.
